Measurements reported in patent publication US20250186467A1, “METHODS OF TREATING MEDICAL CONDITIONS USING STAMPIDINE OR A RELATED COMPOUND” (ROME Therapeutics, Inc., priority 2022, published 2025).

Legend:
[1] = test system: interferon-stimulated gene (ISG) response; experiment: In vivo decitabine challenge model; set-up: species or system C57BL/6 mice; conditions: stampidine 3, 15, 75 mg/kg i.p. daily with decitabine 5 mg/kg i.p., Day 0 to Day 4; spleen, liver, terminal colon
Protocol: Twenty 9-11 week old C57BL/6 mice were acclimated to the lab for at least 5 days. Stampidine was prepared in a 20% HP-b-CD in water solution for i.p. administration. Decitabine (Sigma) was dissolved in sterile PBS (pH 7.4) and dosed within 30 minutes of preparation of the solution. Doses of both stampidine and decitabine were administered i.p. once a day, every day from Day 0 to Day 4.
On Day 0, mice were split into four groups of five mice and given their first dose of decitabine (i.p., 5 mg/kg) and stampidine. Dosing groups were:
Decitabine and stampidine were administered daily from Day 0 to Day 4. All mice were euthanized 1 hour after the last dose administration on Day 4. Spleens, liver, and terminal colon were collected, along with plasma from each animal. The fold changes in interferon-stimulated gene (ISG) expression were calculated by first normalizing to GAPDH gene using the Delta CT method. The CT (gene of interest)−CT (reference gene) was calculated to generate a delta CT for all samples. The fold change was then calculated by taking the […](Delta CT(control)−Delta CT (experimental). The control in this example was the PBS control animal group. The Taqman duplex assay was used to determine levels of GAPDH v. IFIT2.

[2] = test system: phosphorylated TANK-binding kinase 1 (pTBK1); experiment: UVB-induced pTBK1 in HaCaT cells; format: cell-based; conditions: 96 hours of treatment before UVB, 24 hours post-UVB, ELISA
Protocol: HaCaT cells were plated in 6-well plates at a density of ˜100 k/well in HaCaT media (DMEM, optimized 1× (Addex Bio)+1% pen strep (Gibco)+5% heat inactivated fetal bovine serum (Gibco)). The cells were then cultured at 37° C. overnight. The next day, the cells were treated with the test compounds. Each test compound was diluted and added to media aliquots to provide desired concentrations. To add the test compound+media mixture, an equivalent amount of media from each well was aspirated and then replenished with the media dosed with the test compound. The cells were then cultured for an additional 96 hours with compound treatment prior to UVB exposure.
The media was then aspirated from the wells, with the remaining cells at least 80% confluent in each well. One mL of PBS was then added to each well, and the plate was then placed under a UVB lamp. A UVB sensor was positioned near the plate to register the plate's exposure. The cells were exposed to the UVB light until they reached 0.1 mJ/cm^2. Then the plate was covered and transferred to a sterile hood for processing. […]
A RIPA lysis buffer (#BP-115, Boston Bio-Products) was added to a Halt protease and […] inhibitor cocktail (#78440, ThermoFisher), and the mixture was cooled on ice. […] The protein concentration of the cell lysate was measured using Pierce™ Rapid Gold BCA Protein Assay Kit #AF3225 (ThermoFisher). […]

COC(=O)[C@H](C)N[P@](=O)(OC[C@@H]1C=C[C@H](n2cc(C)c(=O)[nH]c2=O)O1)Oc1ccc(Br)cc1 [Stampidine, methyl ((S)-(4-bromophenoxy)(((2S,5R)-5-(5-methyl-2,4-dioxo-3,4-dihydropyrimidin-1(2H)-yl)-2,5-dihydrofuran-2-yl)methoxy)phosphoryl)-L-alaninate]
change in ISG response [1]: showed the change in ISG response which was most prominent in the spleen tissue | reduction of UVB-induced pTBK1 [2]: showed a reduction of UVB-induced phosphorylated TANK-binding kinase 1 (pTBK1)
